Substitutions are numbered along the chain they refer to.

The test system of data set [1] is maize leaf chloroplasts. The experiment in a line: Agro-infiltration of maize leaves with DsRed2 fusions, fluorescence microscopy. In kind it is cell-based, Zea mays. Particulars: Example 16, assayed as described in Example 4. The text has this:
A vector was constructed in which the portion of the maize HPPD (SEQ ID NO: 9) gene coding for the N-terminal 50 amino acids was fused to the gene coding for Discosoma sp. red fluorescence protein 2 (DsRed2) and inserted into a binary expression vector under control of the maize Rubisco activase promoter (Liu et al. (1996) Plant Physiol. 112(1): 43-51) and terminated with the Solanum tuberosum proteinase inhibitor II (pinII) terminator region (An et al. (1989) Plant Cell 1:115-122) with a hygromycin selection cassette. Both genes are between left and right border sequences from Agrobacterium.
A positive control vector was identical to the vector having the N-terminal 50 amino acids of maize HPPD described above except that the HPPD CTP was removed and the DsRed2 insert was fused to the chloroplast targeting peptide of Zea maize rubisco activase, while a negative control was DsRed2 with no targeting sequence. […] Agro-infiltration is a well described method (Kapila et. al. (1997) Plant Science, 122:101-108) of introducing an Agrobacterium cell suspension to plant cells of intact tissues so that reproducible infection and subsequent plant derived trans-gene expression may be measured or studied.
Leaves of 3-week old maize seedlings were infiltrated with the Agrobacterium, and examined by fluorescence microscopy two days later (Nikon Eclipse 80i, DsRed filter set). […]

The subject of data set [2] is sorghum leaves plastids. As to the kind of experiment: Agro-infiltration of sorghum leaves with DsRed fusions. It is filed as cell-based.
Data set [3] deals with G. max leaf cell chloroplasts. As to the kind of experiment: Transient expression of Gm HPPD-AcGFP fusion proteins in soy leaf discs. It is filed as cell-based, Glycine max. The text has this:
Transient expression experiments indicate that the long HPPD protein (SEQ ID NO: 57) is imported to chloroplasts, while the short protein (SEQ ID NO: 59) remains in the cytosol. Plant expression cassettes were constructed fusing portions of the N terminus of Gm HPPD to an Aequorea coerulescens green fluorescent protein 1 (AcGFP1). One fusion contained amino acid residues 1-86 of the long Gm HPPD protein. Another contained residues 1-44 of the short HPPD protein (this corresponds to residues […] of the long protein). These cassettes were incorporated into binary vectors which also contained an untargeted DsRed2 expression cassette and introduced into A. tumefaciens strain AGL 1 and then used to infect leaf discs of G. max as described in Example 3 of U.S. Utility application Ser. No. 13/209,017, now issued U.S. Pat. No. 8,993,837, entitled “Chimeric Promoter and Methods of Use”, filed concurrently herewith and herein incorporated by reference in its entirety.

For data set [4], the system named is maize cell chloroplasts. As to the kind of experiment: Agro-infiltration of maize leaves with G. max HPPD N-terminus AcGFP1 fusions. The conditions noted are these: 4-week old maize seedlings, three days after infiltration. In kind it is cell-based, Zea mays. An excerpt:
Vectors were constructed in which a portion of the gene coding for the G. max HPPD N-terminus was fused to a gene encoding Aequorea coerulescens green fluorescent protein 1 (AcGFP1) and inserted into a binary expression vector under control of the Arabidopsis Ubiquitin 10 promoter (Norris et al. (1993) Plant Mol. Biol. 21, 895-906) and terminated with the Glycine max Kunitz trypsin inhibitor 3 terminator region (NCBI accession S45092). Both genes were between left and right border sequences from Agrobacterium. One fusion contained amino acid residues 1-86 of the long Gm HPPD protein (SEQ ID NO:57). […]
A positive control vector was identical except that the AcGFP1 coding region was fused to the 6H1 synthetic chloroplast targeting peptide (U.S. Pat. No. 7,345,143), while a negative control was AcGFP1 with no targeting sequence. […] Agro-infiltration is a well described method (Kapila et. al. (1997) Plant Science, 122:101-108) of introducing an Agrobacterium cell suspension to plant cells of intact tissues so that reproducible infection and subsequent plant trans-gene expression may be measured or studied.
Leaves of 4-week old maize seedlings were infiltrated with the Agrobacterium, and examined by fluorescence microscopy three days later (Nikon Eclipse 80i, Narrow band-pass GFP filter set). […]

Data set [5] concerns stably transformed soybean cells. The experiment in a line: Immunogold localization of maize HPPD in stably transformed soybean leaf. Particulars: anti-maize HPPD antibody. In kind it is cell-based, Glycine max. An excerpt: Polyclonal antibodies were raised in rabbits against recombinant maize HPPD protein purified by nickel chelate affinity chromatography. Anti-HPPD antibodies were purified from serum by affinity chromatography on immobilized maize HPPD, and further purified by passage through a column of immobilized Rubisco, to remove a small fraction of antibodies that reacted with both HPPD and Rubisco. Leaf punches taken form stably transformed soybean plants expressing a gene encoding the maize HPPD protein (SEQ ID NO: 10) driven by an SCP1 synthetic promoter (U.S. Pat. No. 6,072,050) were fixed in 2% paraformaldehyde, 0.25% glutaraldehyde in 100 mM Na phosphate buffer, pH 7.0, for 3 hours at room temperature, dehydrated by passage through progressively higher concentrations of ethanol, embedded in LR White resin and cured at 55° C. for 48 hours. Sections (0.9 microns) were transferred onto Excell Adhesion glass microscope slides (Electron Microscopy Sciences). Immunolocalization was performed with the primary antibody being the double-purified anti-maize HPPD (1:200) and the secondary antibody goat anti-rabbit F(ab′) conjugated with gold particles (Aurion ultrasmall gold). Gold labeling was followed by silver enhancement (Aurion R-GENT SE-EM). […] Material was analyzed with a YAG detector for backscatter signal in a Hitachi 54800 scanning electron microscope. […]

Data set [6] relates to maize HPPD. As to the kind of experiment: HPPD activity assay of maize HPPD variants expressed in E. coli. In kind it is biochemical, Zea mays. Particulars: N-terminal truncated variants of maize wild-type HPPD, single measurement. The text has this: Organellar targeting sequences are usually cleaved after the peptide enters the organelle. Previous investigators (Fritze I et al. (2004) Plant Physiology 134:1388-1400; Yang C et al. (2004) Biochemistry 43: 10414-10423) have shown that native mature maize HPPD begins at either ala17 or ala23. Variants of the wild-type maize HPPD protein coding region were created with various lengths of the amino terminus removed. The sequences were expressed in E. coli and tested for activity and stability. In each case a methionine start codon was added to the truncated sequence. Proteins were designated by the position of their N-terminal amino acid (all alanines) as in SEQ ID NO: 9. All N-terminal truncated proteins retained the HPPD activity. […] Assaying HPPD activity was carried out as described in Example 1 of Provisional Application 61/401,456, filed Aug. 13, 2010, Compositions and Methods Comprising Sequences having Hydroxyphenylpyruvate Dioxygenase (HPPD) Activity, herein incorporated by reference in it entirety.

Regarding “MPPTPTTAAATGAGAAAAVTPEHAAFRLVGHRRFVRFNPRSDRFHTLAFHHVE [53 amino acid consensus sequence]”, in data set [1], the DsRed localization entry is given as “effectively targeted DsRed to maize plastids”. The DsRed reporter localization entry in data set [2] is given as “efficiently targeted the DsRed reporter protein to plastids”.

As for “residues 42-86: residues 1-44 of the short Gm HPPD protein (42-86 of the long protein) fused to AcGFP1”, the “AcGFP green fluorescence localization” value in data set [3] was “green fluorescence is visible only in the cytoplasm”. Besides, in data set [4], the “AcGFP marker protein localization” value was “delivered the protein to the cytosol”.

B1: maize HPPD: Maize WT HPPD (from WO1997049816 SEQ ID NO: 11), SEQ ID NO: 10 (protein)
chain: MPPTPTAAAAGAAVAAASAAEQAAFRLVGHRNFVRFNPRSDRFHTLAFHHVELWCADAASAAGRFSFGLGAPLAARSDLSTGNSAHASLLLRSGSLSFLFTAPYAHGADAATAALPSFSAAAARRFAADHGLAVRAVALRVADAEDAFRASVAAGARPAFGPVDLGRGFRLAEVELYGDVVLRYVSYPDGAAGEPFLPGFEGVASPGAADYGLSRFDHIVGNVPELAPAAAYFAGFTGFHEFAEFTTEDVGTAESGLNSMVLANNSENVLLPLNEPVHGTKRRSQIQTFLDHHGGPGVQHMALASDDVLRTLREMQARSAMGGFEFMAPPTSDYYDGVRRRAGDVLTEAQIKECQELGVLVDRDDQGVLLQIFTKPVGDRPTLFLEIIQRIGCMEKDEKGQEYQKGGCGGFGKGNFSQLFKSIEDYEKSLEAKQAAAAAAAQGS
modifications: Zea mays
For B1, the gold labeling localization result in data set [5] is “mainly in cytosol and nuclei, but also in chloroplasts”.

B2: Maize wt: wild-type maize HPPD protein (SEQ ID NO: 9) expressed in E. coli (protein)
chain: B1 chain with P2G
modifications: Zea mays
Consider B2, for which the “kcat” value in data set [6] turned out to be 2.77 s⁻¹.

The values above are taken from patent US9139842B2, “Methods and compositions for targeting sequences of interest to the chloroplast” (PIONEER HI-BRED INTERNATIONAL, INC., priority 2010, dated 2015).
